Test results published in PMC2913121 (Nature chemistry, 2010).

What was measured:
[1] = target: T1, SjGST (Schistosoma japonicum, UniProt P08515); assay: SjGST-templated acylhydrazone DCL, amplification by HPLC; assay type: binding; conditions: DCL synthesis in the presence of a large excess of the inhibitor
[2] = target: T1, SjGST; assay: CDNB conjugation assay; assay type: biochemical; conditions: aniline up to 20 mM

T1 sequence (P08515 whole entry): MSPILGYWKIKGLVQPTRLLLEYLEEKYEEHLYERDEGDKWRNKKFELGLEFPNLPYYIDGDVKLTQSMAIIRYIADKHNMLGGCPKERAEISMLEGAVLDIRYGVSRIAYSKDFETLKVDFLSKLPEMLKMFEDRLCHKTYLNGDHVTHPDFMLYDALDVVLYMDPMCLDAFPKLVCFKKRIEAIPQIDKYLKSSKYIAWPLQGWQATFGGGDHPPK

| effect on DCL component amplification [1] | SMILES | SjGST GSH conjugation activity in the presence of the additive [2] |
| --- | --- | --- |
| completely suppressed | C=C(CC)C(=O)c1ccc(OCC(=O)O)c(Cl)c1Cl [ethacrynic acid] | – |
| – | Nc1ccccc1 [aniline] | retained GSH conjugation activity |
